Measured values as given in PMC11221360 (Molecular psychiatry, 2023).

How the values were obtained:
rats [1] = experiment: Hotplate analgesia; format: in vivo, rat
rats [2] = experiment: Catalepsy score; format: in vivo, rat
rats [3] = experiment: Intravenous self-administration; format: in vivo, rat; conditions: for shape of IVSA dose-response / unit dose with peak infusion rates in IVSA dose response: trained rats; for acquisition of IVSA in dose finding experiments: rats, (R)-MTD at 50 μg/kg/infusion, (S)-MTD even at high unit doses
mice [4] = experiment: Acute locomotor activity; format: in vivo, mouse; conditions: for most effective dose for locomotor activation (inverted U) / effect on locomotion: sc; for effect on locomotion: after 60 minutes of habituation, (S)-MTD up to 100 mg/kg
mice [5] = experiment: Psychomotor sensitization, repeated injections in open-field chambers; format: in vivo, mouse; conditions: for psychomotor sensitization: ip, three days, (R)-MTD 2, 5, 10, (R,S)-MTD 4, 10, 20, (S)-MTD 20, 30, 40 mg/kg
SERT = SERT (Homo sapiens, UniProt P31645); experiment: Receptor and enzyme competitive screen; format: binding; conditions: 100 nM
SERT, sequence (P31645 whole entry, species assumed, the tested form may be a part): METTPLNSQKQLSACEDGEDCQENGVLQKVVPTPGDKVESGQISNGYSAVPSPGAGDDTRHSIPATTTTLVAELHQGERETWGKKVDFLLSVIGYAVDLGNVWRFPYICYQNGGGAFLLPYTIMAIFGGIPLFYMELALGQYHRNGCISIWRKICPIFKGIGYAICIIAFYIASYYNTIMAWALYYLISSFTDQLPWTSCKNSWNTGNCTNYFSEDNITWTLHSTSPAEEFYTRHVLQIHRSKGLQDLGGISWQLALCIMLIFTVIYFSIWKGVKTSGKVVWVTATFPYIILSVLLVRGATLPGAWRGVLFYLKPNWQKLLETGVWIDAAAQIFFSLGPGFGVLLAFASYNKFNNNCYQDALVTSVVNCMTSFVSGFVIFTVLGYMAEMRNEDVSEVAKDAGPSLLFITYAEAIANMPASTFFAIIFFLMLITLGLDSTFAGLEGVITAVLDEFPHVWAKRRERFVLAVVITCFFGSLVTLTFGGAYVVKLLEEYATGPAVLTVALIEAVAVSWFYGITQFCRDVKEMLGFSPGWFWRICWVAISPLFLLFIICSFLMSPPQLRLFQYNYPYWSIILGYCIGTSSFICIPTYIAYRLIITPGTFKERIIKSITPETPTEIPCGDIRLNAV

[6] = tested on: extracellular dopamine in rat VTA; experiment: In vivo microdialysis, perfusion into VTA, somatodendritic dopamine release; conditions: for effect on extracellular dopamine: local perfusion, (S)-MTD up to 100 μM
NMDARs = conditions: ref [10], cited from earlier work

CCC(=O)C(CC(C)N(C)C)(c1ccccc1)c1ccccc1 (racemic) [(R,S)-MTD, (R,S)-methadone]
hotplate ED50 (%MPE) (rats [1]): 1.2 mg/kg
hotplate agonist profile (rats [1]): full agonistic activity
cataleptic ED50 (%MPE) (rats [2]): 2.1 mg/kg
dose at which maximal cataleptic effects were observed (rats [2]): 10 mg/kg
shape of IVSA dose-response (rats [3]): inverted-U shaped dose-response curve
unit dose with peak infusion rates in IVSA dose response (rats [3]): 0.05 mg/kg
most effective dose for locomotor activation (inverted U) (mice [4]): 10 mg/kg
effect on locomotion (mice [4]): increased locomotion
psychomotor sensitization (mice [5]): failed to show sensitization at any dose

CCC(=O)C(C[C@@H](C)N(C)C)(c1ccccc1)c1ccccc1 [(R)-MTD]
inhibition of binding at SERT (SERT): 68%
hotplate ED50 (%MPE) (rats [1]): 0.5 mg/kg
hotplate agonist profile (rats [1]): full agonistic activity
cataleptic ED50 (%MPE) (rats [2]): 0.9 mg/kg
dose at which maximal cataleptic effects were observed (rats [2]): 3 mg/kg
maximum consumed at the highest dose in IVSA (rats [3]; rats exposed to (R)-MTD, dose finding): ~ 2 mg/kg
acquisition of IVSA in dose finding experiments (rats [3]): readily self-administered
shape of IVSA dose-response (rats [3]): inverted-U shaped dose-response curve
unit dose with peak infusion rates in IVSA dose response (rats [3]): 0.025 mg/kg
most effective dose for locomotor activation (inverted U) (mice [4]): 3 mg/kg
effect on locomotion (mice [4]): increased locomotion
psychomotor sensitization (mice [5]): produced psychomotor sensitization at 10 mg/kg
effect on extracellular dopamine [6]: concentration-dependent increase in extracellular dopamine

CCC(=O)C(C[C@H](C)N(C)C)(c1ccccc1)c1ccccc1 [(S)-MTD, (S)-methadone]
hotplate agonist profile (rats [1]): full agonistic activity
catalepsy score agonist profile (rats [2]; up to 100 mg/kg): partial agonist
IVSA in (R)-MTD-trained rats switched to (S)-MTD (rats [3]; 500 μg/kg/infusion): reliable IVSA
cumulative dose consumed at the highest dose in IVSA (rats [3]; (R)-MTD-trained rats switched to (S)-MTD): ~ 30 mg/kg
acquisition of IVSA in dose finding experiments (rats [3]): never acquired IVSA
shape of IVSA dose-response (rats [3]): no evidence of dose response
effect on locomotor-stimulating effect of (R)-MTD (10 mg/kg, sc) (mice [4]; (S)-MTD 10, 30 mg/kg sc, 15 min before (R)-MTD): dose-dependently counteracted
effect on locomotion (mice [4]): did not produce any significant locomotor-activating effects
effect of pretreatment on (R)-MTD-induced (10 mg/kg, ip) sensitization (mice [5]; (S)-MTD 10 or 30 mg/kg): did not prevent psychomotor sensitization
psychomotor sensitization (mice [5]): failed to show sensitization at any dose
effect on (R)-MTD (10 μM)-induced dopamine release ([6]; co-perfusion, (S)-MTD 100 μM): completely counteracted
effect on extracellular dopamine [6]: did not induce any significant effect
affinity for the MOR, times greater than affinity for the NMDAR (NMDARs; [15]): ~ 300 times
affinity at NMDARs (NMDARs): 2.6 to 7.4 µM
